Key:
hTRPA1 = target: T1, hTRPA1 (Homo sapiens, UniProt O75762); assay: FLIPR calcium assay (agonism) in HEK293 cells with inducible hTRPA1; non-expressing HEK293 control; type: cell-based
T1 construct: gene TRPA1

rTRPA1 = target: T2, rTRPA1 (Rattus norvegicus, UniProt Q6RI86); assay: FLIPR calcium assay in HEK293 cells with inducible rTRPA1 ([…] of maximal AITC response at […]; desensitization to AITC); type: cell-based
T2 construct: gene Trpa1
T2 sequence (Q6RI86 whole entry): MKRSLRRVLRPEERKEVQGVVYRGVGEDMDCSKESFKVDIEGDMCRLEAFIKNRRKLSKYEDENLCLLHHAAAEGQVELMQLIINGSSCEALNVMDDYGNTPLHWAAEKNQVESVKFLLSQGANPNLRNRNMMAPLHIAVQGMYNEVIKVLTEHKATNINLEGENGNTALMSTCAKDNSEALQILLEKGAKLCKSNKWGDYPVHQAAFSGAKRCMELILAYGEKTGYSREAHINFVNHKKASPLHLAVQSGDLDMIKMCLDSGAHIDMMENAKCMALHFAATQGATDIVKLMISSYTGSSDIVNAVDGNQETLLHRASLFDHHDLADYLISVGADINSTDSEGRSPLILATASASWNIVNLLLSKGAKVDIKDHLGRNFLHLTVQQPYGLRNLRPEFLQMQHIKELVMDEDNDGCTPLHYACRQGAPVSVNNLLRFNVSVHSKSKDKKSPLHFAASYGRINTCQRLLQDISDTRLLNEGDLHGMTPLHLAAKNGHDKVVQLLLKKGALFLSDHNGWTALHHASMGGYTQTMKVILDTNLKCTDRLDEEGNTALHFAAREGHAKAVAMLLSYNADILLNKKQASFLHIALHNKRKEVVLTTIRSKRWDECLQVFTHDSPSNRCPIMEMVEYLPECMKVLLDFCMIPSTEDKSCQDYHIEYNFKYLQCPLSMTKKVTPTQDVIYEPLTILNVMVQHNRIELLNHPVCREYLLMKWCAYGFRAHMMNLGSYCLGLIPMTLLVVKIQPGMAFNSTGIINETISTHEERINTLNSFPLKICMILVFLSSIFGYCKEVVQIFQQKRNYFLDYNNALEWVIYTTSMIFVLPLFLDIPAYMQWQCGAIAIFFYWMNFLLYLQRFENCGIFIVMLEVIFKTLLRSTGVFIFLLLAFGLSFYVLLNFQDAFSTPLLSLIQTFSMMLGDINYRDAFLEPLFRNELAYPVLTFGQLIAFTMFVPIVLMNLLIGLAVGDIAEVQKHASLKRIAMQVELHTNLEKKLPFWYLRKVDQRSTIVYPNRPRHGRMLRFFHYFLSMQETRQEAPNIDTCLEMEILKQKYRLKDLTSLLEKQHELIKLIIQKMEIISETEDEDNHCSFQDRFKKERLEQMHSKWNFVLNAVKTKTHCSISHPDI

T1 sequence (O75762 whole entry): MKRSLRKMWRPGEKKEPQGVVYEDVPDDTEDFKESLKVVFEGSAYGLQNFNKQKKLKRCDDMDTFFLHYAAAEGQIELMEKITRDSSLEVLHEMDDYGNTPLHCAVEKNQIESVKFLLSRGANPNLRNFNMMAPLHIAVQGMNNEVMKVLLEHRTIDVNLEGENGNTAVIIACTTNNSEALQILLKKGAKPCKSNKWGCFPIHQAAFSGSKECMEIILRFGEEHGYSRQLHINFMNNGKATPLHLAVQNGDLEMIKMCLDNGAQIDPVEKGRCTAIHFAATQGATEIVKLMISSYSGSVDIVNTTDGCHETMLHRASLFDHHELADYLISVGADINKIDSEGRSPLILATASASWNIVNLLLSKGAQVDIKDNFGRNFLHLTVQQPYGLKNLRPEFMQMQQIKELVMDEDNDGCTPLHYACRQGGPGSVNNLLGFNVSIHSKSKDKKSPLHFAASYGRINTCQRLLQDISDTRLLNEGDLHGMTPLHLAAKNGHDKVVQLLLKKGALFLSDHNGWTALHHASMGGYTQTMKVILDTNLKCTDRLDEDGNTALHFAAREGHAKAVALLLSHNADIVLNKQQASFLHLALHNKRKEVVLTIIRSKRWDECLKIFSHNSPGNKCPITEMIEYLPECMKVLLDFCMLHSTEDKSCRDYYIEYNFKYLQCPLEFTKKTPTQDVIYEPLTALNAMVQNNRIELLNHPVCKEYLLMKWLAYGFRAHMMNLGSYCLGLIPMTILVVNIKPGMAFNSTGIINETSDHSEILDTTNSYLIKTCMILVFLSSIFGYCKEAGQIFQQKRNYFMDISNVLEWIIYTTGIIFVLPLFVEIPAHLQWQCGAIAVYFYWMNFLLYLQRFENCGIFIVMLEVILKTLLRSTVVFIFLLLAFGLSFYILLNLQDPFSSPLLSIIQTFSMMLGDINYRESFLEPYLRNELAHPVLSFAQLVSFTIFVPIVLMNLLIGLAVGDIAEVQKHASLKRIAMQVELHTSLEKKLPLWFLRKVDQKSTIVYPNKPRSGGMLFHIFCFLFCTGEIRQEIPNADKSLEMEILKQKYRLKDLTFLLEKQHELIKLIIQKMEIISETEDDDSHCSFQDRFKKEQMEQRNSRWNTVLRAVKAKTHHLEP

Row | SMILES | EC50 (hTRPA1) [µM] | Emax at 100 µM (rTRPA1) [%]
1 | Oc1cc(O)cc(/C=C/c2ccccc2)c1 [Pinosylvin] | 12 ± 1.1 | –
2 | Oc1ccc(/C=C/c2cc(O)cc(O)c2)cc1 [Resveratrol] | 3.2 ± 0.2 | 35
3 | COc1cc(O)cc(/C=C/c2ccccc2)c1 [pinosylvin monomethyl ether] | 11.2 ± 0.8 | –

— article PMC11793850, “Insights into Molecular Interactions and Biological Effect of Natural Stilbenoids at the TRPA1 Ion Channel” (Chemmedchem, 2024)
